# Test results from patent publication US20220133747A1, “ESTROGEN RECEPTOR INHIBITORS AND USES THEROF” (The Regents of the University of California, priority 2018, published 2022).
# What was measured:
# ERα = target: T1, ERα (Homo sapiens, UniProt P03372); assay: Downregulation of ER protein, PAGE and Western immunoblot in MCF-7 cells; assay type: cell-based; settings: 100 nM, 4 hours, phenol-red free medium without FBS
# T1 construct: endogenous in cells; host or cells: MCF-7 human breast cancer cells (ATCC)
# T1 sequence (P03372 1-595): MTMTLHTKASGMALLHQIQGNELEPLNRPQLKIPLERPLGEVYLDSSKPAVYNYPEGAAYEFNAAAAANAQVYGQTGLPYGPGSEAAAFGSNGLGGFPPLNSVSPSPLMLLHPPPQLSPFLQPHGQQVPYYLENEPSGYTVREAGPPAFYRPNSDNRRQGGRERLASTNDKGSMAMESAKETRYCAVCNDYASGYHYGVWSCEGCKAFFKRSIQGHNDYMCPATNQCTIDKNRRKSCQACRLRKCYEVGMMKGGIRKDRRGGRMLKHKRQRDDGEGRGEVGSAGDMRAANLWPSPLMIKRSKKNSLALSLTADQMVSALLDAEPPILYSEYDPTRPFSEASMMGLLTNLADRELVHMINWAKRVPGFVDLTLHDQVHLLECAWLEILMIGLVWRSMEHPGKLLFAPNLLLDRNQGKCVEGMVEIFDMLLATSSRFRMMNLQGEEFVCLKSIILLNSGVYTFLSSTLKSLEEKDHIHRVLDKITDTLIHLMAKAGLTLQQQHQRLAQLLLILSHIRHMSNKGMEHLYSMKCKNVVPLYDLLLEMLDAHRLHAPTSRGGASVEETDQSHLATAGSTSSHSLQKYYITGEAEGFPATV
# Method: (§1) FIGS. 20A-20C show biologic activity of selected SERD candidates. […] ER-positive MCF-7 cells were treated in phenol-red free RPMI 1640 without FBS and containing vehicle control (CON) or 100 nM concentrations of either fulvestrant (FX) or antiestrogens 105, 109, 121, 140, 151, 160 or SERD128 in vitro. After 4 hours, cells were harvested and processed for PAGE and Western immunoblots using ERα antibody (1D5, Thermofisher Scientific). RPL13A was used as a loading control. […] Cells were dosed with either E2 alone or with SERDs combined with E2 in phenol redfree medium with 0.1% dextran-coated charcoal-treated FBS in luminometer plates. Data are presented as relative light units (RLU) relative to that of E2 alone in three replicate assays (4 wells per replicate) f SEM. Treatment with E2 alone induced a 12-fold induction of ER-dependent luciferase activity quantified as RLU relative to vehicle control-treated samples.
# MCF7 cells were plated in regular medium. After 24 hrs, cells were incubated in the presence of antiestrogens or fulvestrant for 4 hrs in phenol-red free medium without FBS. Cell lysates were prepared using RIPA buffer, and protein concentration was determined using the BCA Protein Assay Kit (PIERCE/ThermoFisher Scientific). Forty micrograms of total cell protein was resolved by 4-15% SDS-PAGE, transferred to a PVDF membrane and probed with antibody directed against ERα (1D5, 1:100, ThermoFisher cat #MA5-13191). RPL13A (dilution 1:1000, Invitrogen/ThermoFisher cat #PA5-58528) was used as loading control.
# ER+ early breast cancer = settings: cited from earlier work
# [1] = tested on: ER-dependent transcription; assay: ERE-luciferase T47D reporter, ER-dependent transcriptional activity; assay type: cell-based, human; settings: E2 alone, 2 nM
# Method: as §1
# A stable ER-positive T47D ERE luciferase reporter cell line, in which the ERE and the reporter luciferase gene are consistently expressed in the cell line were used in this study (Signosis). […] Lysate was mixed 1:1 with luciferase substrate (Promega), and luminescence was measured using a MLX microtiter plate luminometer (Dynex) and quantified as relative light units (RLU) according to established procedures. Total protein was quantified using BioRad Protein Assay (BioRad).
smiles,measurement,setting,value
"C[C@]12C[C@H](Oc3ccc(NC(=O)CCCCN4CCCCC4)c(F)c3)[C@@H]3c4ccc(O)cc4CC[C@H]3[C@@H]1CC[C@@H]2O [SERD140, N-(4-(((8S,9S,11S,13S,14S,17S)-3,17-Dihydroxy-13-methyl-7,8,9,11,12,13,14,15,16,17-deca-hydro-6H-cyclopenta[a]phenanthren-11-yl)oxy)-2-fluorophenyl)-5-(piperidin-1-yl)pentan-amide]",downregulation of ER protein (ERα protein levels),ERα,most effective in reducing ER protein levels
CC/C(=C(\c1ccccc1)c1ccc(OCCN(C)C)cc1)c1ccccc1 [Tamoxifen],reduction in disease recurrence,ER+ early breast cancer,39%
same,reduction in mortality,ER+ early breast cancer,31%
"C[C@]12CC[C@@H]3c4ccc(O)cc4CC[C@H]3[C@@H]1CC[C@@H]2O [E2, estradiol-17β, reference compound]",induction of ER-dependent luciferase activity (RLU relative to vehicle control),[1],12 fold
